Where two headings read alike, the source gives them in different places. Marks after values point to notes of the source that are not given here.
Key:
[1] = system: human epidermoid carcinoma cell line A431; test: In vitro inhibitory action on human tumor cells, A431 (MTT); type: cell-based; conditions: MTT assay, usually 3 days, read-out: Inhibitory activity on human epidermoid cancer cell line A431 (IC50)
Procedure: (§1) Human epidermoid carcinoma cell line A431, human non-small cell lung cancer cell line HCC827, head and neck cancer cell lines Fadu and human pancreatic cancer cell line AsPC-1 were purchased from Cell Bank, Chinese Academy of Sciences.
(§2) 3.2 Cell culture method: cells were cultured in the complete medium at 37° C. under 5% CO2 and saturated humidity until logarithmic growth phase, i.e., adherent cells substantially approach complete confluence, and then collected for subsequent assay. For the adherent cells, they were firstly digested with trypsin/EDTA to detach.
(§3) 3.3 A certain number of cells were seeded into 96-well cell culture plates (hereinafter referred to as 96-well plates). […] Finally, total cellular protein in the wells was determined using SRB assay, or cell viability was determined with MTT assay.
(§4) 3.3.1 The cell seeding concentration was determined by cell growth curve assay which completely simulates compound inhibition assay process. […]
(§5) 3.4 Dilution and addition of compounds: the concentration of DMSO that can be tolerant by the cells was determined by DMSO tolerance assay, and thereby selecting the dilution and addition methods of compounds. The effects of different concentrations of DMSO on cell growth were determined by DMSO tolerance assay. […] Two methods are finally determined as follows. […]

[2] = system: human non-small cell lung cancer cell line HCC827; test: In vitro inhibitory action on human tumor cells, HCC827 (SRB); type: cell-based; conditions: SRB assay, usually 3 days
Procedure: as §1, §2, §3, §4, §5

[3] = system: A431 human epidermal carcinoma xenograft; test: A431 human epidermal carcinoma xenograft model; type: in vivo, nude mice; conditions: for Tumor Weight (x ± S.D.) / Tumor Inhibitor Rate / Relative Tumor Volume (x ± S.D.) / T/C / Tumor Volume (x ± S.D.): A431 xenograft; for Tumor Inhibitor Rate: by tumor weight; for Relative Tumor Volume (x ± S.D.) / T/C / Tumor Volume (x ± S.D.): end of the assay
Procedure: Tumor cells were cultured in an incubator at 37° C. with 5% CO2 using MEM medium containing 10% inactivated fetal calf serum, 100 U/ml penicillin and 100 µg/ml streptomycin. The tumor cells in logarithmic growth phase were collected, adjusted to an appropriate density and injected subcutaneously into nude mice (0.2 ml per mouse). An xenograft model was established after a tumor was formed in the nude mice and passaged in vivo for more than three generations.
The above-mentioned tumor-bearing mice were sacrificed by cervical dislocation. The tumor was taken out and cut into small tumor pieces (about 2 mm×2 mm×2 mm) under sterile conditions. The small tumor pieces were inoculated subcutaneously into nude mice with a trocar. […] The animals in each group were subjected to intragastric administration once a day for 14 consecutive days. The day of grouping is assigned as day 0.
Tumor volume is calculated as: volume =0.5×long diameter×short diameter^2. The relative tumor volume (RTV) was calculated based on the measurements as: RTV=Vt/V0, wherein V0 is the tumor volume measured when the animals were grouped to be administrated (i.e., d0), and Vt is the tumor volume when each measurement was taken. Relative tumor proliferation rate T/C was calculated based on relative tumor volume, in which T is the mean value of the relative tumor volume of the treatment group, and C is the mean value of the relative tumor volume of the solvent control group. T/C was calculated as follows: T/C=TRTV/CRTV×100% (TRTV: RTV of the treatment group; CRTV:
RTV of the solvent control group) Inhibition rate (%)=(mean tumor weight of the solvent control group−mean tumor weight of the treatment group)/mean tumor weight of the solvent control group×100%. Percentage of body weight change=Wn/W0×100% (Wn: mean body weight of experimental animals in each group at day n, W0: mean body weight of experimental animals in each group at day 0).
One-Way ANOVA test was conducted in SPSS13.0, performing statistical analysis between groups.

[4] = A431 xenograft nude mice, 20, 40 and 80 mg/kg intragastric once a day for 14 days
[5] = 20 mg/kg intragastric once a day for 14 days
[6] = 40 mg/kg intragastric once a day for 14 days
[7] = 80 mg/kg intragastric once a day for 14 days

SMILES: COCCOc1cc2ncnc(Nc3ccc(F)c(Cl)c3)c2cc1NC(=O)C=C1CCN(CCOC)CC1 [Compound 1, N-[4-(3-chloro-4-fluorophenylamino)-7-(2-methoxyethoxy)quinazolin-6-yl]-2-[1-(2-methoxyethyl)piperidin-4-ylidene]acetamide]
- IC50 ([1]; Homo sapiens, A-431, 72 h): 125 nM
- IC50 ([2]; Homo sapiens, HCC827, 72 h): 8 nM

SMILES: COCCOc1cc2ncnc(Nc3ccc(F)c(Cl)c3)c2cc1NC(=O)C=C1CCN(CCOC)CC1.CS(=O)(=O)O [Compound 3, N-[4-(3-chloro-4-fluorophenylamino)-7-(2-methoxyethoxy)quinazolin-6-yl]-2-[1-(2-methoxyethyl)piperidin-4-ylidene]acetamide dimethylsulfonate]
- IC50 [1]: 138 nM
- IC50 [2]: 10 nM
- Body weights of the experimental animals [3, 4]: not significantly reduced
- abnormality in the experimental animals [3, 4]: no significant abnormality was observed
- Tumor Weight (x ± S.D.) [3, 5]: 0.232 ± 0.312 g
- Tumor Inhibitor Rate [3, 5]: 68.6%
- Relative Tumor Volume (x ± S.D.) [3, 5]: 2.3 ± 1.5
- T/C [3, 5]: 30.6%
- Tumor Volume (x ± S.D.) [3, 5]: 424.9 ± 434.0*** mm^3
- Tumor Weight (x ± S.D.) [3, 6]: 0.199 ± 0.153 g
- Tumor Inhibitor Rate [3, 6]: 73.2%
- Relative Tumor Volume (x ± S.D.) [3, 6]: 2.8 ± 2.3
- T/C [3, 6]: 37.7%
- Tumor Volume (x ± S.D.) [3, 6]: 418.9 ± 284.7*** mm^3
- Tumor Weight (x ± S.D.) [3, 7]: 0.107 ± 0.126 g
- Tumor Inhibitor Rate [3, 7]: 85.6%
- Relative Tumor Volume (x ± S.D.) [3, 7]: 1.4 ± 0.9
- T/C [3, 7]: 19.1%
- Tumor Volume (x ± S.D.) [3, 7]: 254.7 ± 228.2*** mm^3

— patent publication US9840494B2, “Quinazoline derivative” (Tianjin Hemay Oncology Pharmaceutical Co., Ltd., priority 2013, dated 2017)
